Columns and labels:
[1] = target: T1, HA-VP16-TraR fusion (TraR from Agrobacterium strain A348 fused to VP16 activation domain; pMON53030) (UniProt P06492+P33905); test: Transient GUS reporter assay in transfected carrot protoplasts with VP16-TraR effector; type: cell-based, Agrobacterium tumefaciens; parameters: + inducer (average of the GUS activities) / + inducer (GUS activity, average) / GUS activity, average (with AHL or analog at the stated concentration) / GUS activity, average (+ inducer) / GUS activity, average: unit not given here; details: for GUS activity, average ('- inducer'): 1 µM of the AHL or analog; for GUS activity, average ('- inducer') / GUS activity, average (with AHL or analog at the stated concentration) / GUS activity, average (+ inducer) / GUS activity, average / fold +/-: reporter TraA8(4X)-GUS + 35S-VP16-TraR; for GUS activity, average (with AHL or analog at the stated concentration): 5 µM of the AHL or analog; for GUS activity, average: 25 µM of the AHL or analog; for + inducer (GUS activity, average): 12.5 µM C8-AHL
T1 construct: PCR fragments containing open reading frames are cloned into an expression construct; expressed in transfected cells; host or cells: carrot protoplasts from cell suspension culture, transient transfection
Text: Carrot protoplasts were transfected with the TraA8 (4X)- GUS reporter construct with the 35S-VP16-TraR activator gene and tested for GUS induction by application of wild type AHL and the various AHL analogs described in Example 8. Table 8: Transient assays in carrot protoplasts of AHL analogs

[2] = system: HA-VP16-EsaR fusion (pMON53005); test: Transient GUS reporter assay in transfected carrot protoplasts with VP16-EsaR effector; type: cell-based, Erwinia sterwartii; details: for + inducer (average of the GUS activities): 25 [i M] OOHL, 36 hrs
Protocol: Plasmids for transfection were isolated and purified using Megaprep plasmid DNA isolation kit (Qiagen). Carrot protoplasts for transfections were prepared from carrot cell suspension culture and transfected with purified DNA as described (Ulmasov et al., Plant Cell 7:1611-1623, 1995). Briefly, 10 ì g of the reporter plasmid and 5 ìg of the effector plasmid were incubated with 10^6 protoplasts for five minutes at the room temperature in the presence of polyethylene glycol-calcium solution. After diluting approximately 10-fold with the culture medium, the protoplasts were incubated in the dark for 36 hours either in the presence or absence of the inducer 3-oxohexanoyl-homoserine lactone (OHHL, racemic mixture of the L- and D-isomers, purchased from Sigma Chemical Co., St Louis, MO). After incubation, protoplasts were collected by low-speed centrifugation, lysed and the level of GUS activity was measured using fluorometric GUS assay (Jefferson et al., EMBO J. 6:3901-3907, 1987).
Ten µg of the reporter plasmid (pMON53031), and indicated amount of the 35S effector plasmid per reaction was used for transfection in triplicate.

[3] = system: VP16-TraR fusion (pMON53077); test: GUS activity in transgenic Arabidopsis plants carrying GUS reporter and 35S-VP16-TraR activator genes; type: in vivo, Agrobacterium tumefaciens; details: detached caulline leaves, 24 hours in MS medium with 100 µM HSL
Protocol: Transgenic Arabidopsis plants containing TraA8(3X)-GUS reporter and 35S-VP16-TraR activator genes (pMON53077) were analyzed for induction of GUS activity. […] GUS assays were conducted as described by Jefferson et al. (supra).
In addition, detached leaves incubated for 24 hours in MS medium with or without 100 µM HSL were visualized for induction of GUS activity after staining.

[4] = system: TraR (expressed from GAL1 galactose inducible promoter, pGAL415TraR); test: β-galactosidase reporter assay (chemiluminescent) in yeast expressing TraR; type: cell-based, Agrobacterium tumefaciens; details: 50µM C8-HSL, 5 hrs of growth on galactose; strain YPH499, cl.5 and 6; minimal promoter with 3 copies of TraA8 element
[5] = system: TraM; details: 12.5 µM C8-AHL; reporter TraA8(3X), cl.4 (60 µg) + TraM
Text: Plasmids for transfection were isolated and purified using Megaprep plasmid DNA isolation kit (Qiagen).

[6] = 25 [i M] inducer (OOHL, or C6), reporter pMON53031, pMON53030 60 µg, 36 hrs

CCCCCC(=O)C(C)(C)C(=O)N[C@@H](CCO)C(=O)O [compound 16, N-(α,α-Dimethyl-b-ketooctanoyl)-(S)-homoserine]
GUS activity, average ('- inducer') [1]: 111.8
GUS activity, average (with AHL or analog at the stated concentration) [1]: 229.7
GUS activity, average (+ inducer) ([1]; 12.5 µM of the AHL or analog): 509.8
GUS activity, average [1]: 1426.6
GUS activity, average (+ inducer) ([1]; 75 µM of the AHL or analog): 4719.8
fold +/- ([1]; ratio of GUS activity at 12.5 µM to that at 5 µM): 2.2 fold
fold +/- ([1]; ratio of GUS activity at 75 µM to that at 25 µM): 3.3 fold
fold +/- ([1]; ratio of GUS activity at […] to that at 1 µM): 2.8 fold

CCCC(=O)CC(=O)N[C@H]1CCOC1=O [C6, N-(3-oxohexanoyl)-L-homoserine lactone]
activation by the VP16-EsaR construct diminished by addition of the inducer ([2]; reporter esaR box (4X)-GUS pMON53009, dose-dependent, concentration not given, 36 hours): up to 3.3 fold
Fold induction ([1]; 25 [i M] inducer (OOHL, or C6) vs no inducer, reporter pMON53031, pMON53030 60 µg, 36 hrs, 25 µM): 1.6 fold
+ inducer (average of the GUS activities) [1, 6]: 568.5

3-oxooctanoyl-L-homoserine lactone [C8-HSL]
+ inducer (average of the GUS activities) ([2]; pMON53035 (lasB box 3X-GUS) + pMON53005 60 µg): 4.9
+ inducer (average of the GUS activities) ([2]; reporter pMON53031, pMON53005 60 µg): 764.1
induction of GUS activity by histochemical GUS staining [3]: uniform induced activity
GUS activity, average ('- inducer') [1]: 1263.2
GUS activity, average (with AHL or analog at the stated concentration) [1]: 3018.7
+ inducer (GUS activity, average) ([1]; reporter Tra box(3X), cl.5, second transfection): 1576.2
+ inducer (GUS activity, average) ([1]; reporter TraA1 (3X), cl.35, second transfection): 1560.4
+ inducer (GUS activity, average) ([1]; reporter TraA2(3X), cl.43, second transfection): 2057.1
+ inducer (GUS activity, average) ([1]; reporter TraA3(3X), cl.4, second transfection): 100.1
+ inducer (GUS activity, average) ([1]; reporter TraA4(3X), cl.23, second transfection): 109.6
+ inducer (GUS activity, average) ([1]; reporter TraA5(3X), cl.2, second transfection): 82.3
+ inducer (GUS activity, average) ([1]; reporter TraA6(3X), cl.21, second transfection): 3.2
+ inducer (GUS activity, average) ([1]; reporter TraA7(3X), cl.15, second transfection): 236.8
+ inducer (GUS activity, average) ([1]; reporter TraA8(3X), cl.4 (25µg) + TraR + CAT): 762.2
+ inducer (GUS activity, average) ([1]; reporter TraA8(3X), cl.4 (25µg) + TraR + TraM co-transfected): 11.8
+ inducer (GUS activity, average) ([1]; reporter TraA8(3X), cl.4 (25µg) + TraR + TraS co-transfected): 248.3
+ inducer (GUS activity, average) ([1]; reporter TraA8(3X), cl.4 (60 µg), effector printed as TraR): 1665.3
+ inducer (GUS activity, average) ([1]; reporter TraA8(3X), cl.4, second transfection): 1759.1
+ inducer (GUS activity, average) ([1]; reporter TraA8(4X), cl. 16 + HA-VP16-TraR): 1015.3
+ inducer (GUS activity, average) ([1]; reporter TraA10(3X), cl.17, second transfection): 641.1
+ inducer (GUS activity, average) ([1]; reporter TraA-1(3X), cl.14, second transfection): 26.7
+ inducer (GUS activity, average) ([1]; reporter tra box (6X), cl.7, first transfection): 987.4
+ inducer (GUS activity, average) ([1]; reporter traA1(3X), cl.35, first transfection): 1941.5
+ inducer (GUS activity, average) ([1]; reporter traA2(3X), cl.43, first transfection): 2281.6
+ inducer (GUS activity, average) ([1]; reporter traA3(3X), cl.4, first transfection): 116.5
+ inducer (GUS activity, average) ([1]; reporter traA4(3X), cl.23, first transfection): 122.8
+ inducer (GUS activity, average) ([1]; reporter traA5(3X), cl.2, first transfection): 20.5
+ inducer (GUS activity, average) ([1]; reporter traA6(3X), cl.21, first transfection): 64.6
+ inducer (GUS activity, average) ([1]; reporter traA7(3X), cl.15, first transfection): 234.8
+ inducer (GUS activity, average) ([1]; reporter traA8(3X), cl.4, first transfection): 888.0
+ inducer (GUS activity, average) ([1]; reporter traA9(3X), cl.8, first transfection): 63.7
GUS activity, average (+ inducer) ([1]; 12.5 µM of the AHL or analog): 4142.8
GUS activity, average [1]: 7642.9
GUS activity, average ([1]; listed as CB-HSL): 7523.9
GUS activity, average (+ inducer) ([1]; 75 µM of the AHL or analog): 7975.7
+ inducer (average of the GUS activities) ([1]; 0.1 [i M] OOHL, reporter pMON53031, pMON53030 60 µg, 36 hrs): 355.9
+ inducer (average of the GUS activities) ([1]; 0.5 [i M] OOHL, reporter pMON53031, pMON53030 60 µg, 36 hrs): 698
+ inducer (average of the GUS activities) ([1]; 1 [i M] OOHL, reporter pMON53031, pMON53030 60 µg, 36 hrs): 458.2
+ inducer (average of the GUS activities) ([1]; 2.5 [i M] OOHL, reporter pMON53031, pMON53030 60 µg, 36 hrs): 1487.8
+ inducer (average of the GUS activities) ([1]; 5 [i M] OOHL, reporter pMON53031, pMON53030 60 µg, 36 hrs): 1474.2
+ inducer (average of the GUS activities) ([1]; 12.5 [i M] OOHL, reporter pMON53031, pMON53030 60 µg, 36 hrs): 1526.2
+ inducer (average of the GUS activities) ([1]; 25 [i M] OOHL, reporter pMON53031, pMON53030 30 µg + CAT, 36 hrs): 215.7
+ inducer (average of the GUS activities) [1, 6]: 1393.2
+ inducer (average of the GUS activities) ([1]; 50 [i M] OOHL, reporter pMON53031, pMON53030 60 µg, 36 hrs): 1595.5
+ inducer (average of the GUS activities) ([1]; 100 [i M] OOHL, reporter pMON53031 (traII box 3X-GUS) 10 µg, pMON53030 60 µg, 36 hrs): 1446.4
induction of β-gal activity in cell extracts [4]: strong induction
+ inducer (GUS activity, average) [5]: 98.0
